Assay results published in US20090305960A1, “Melanocortin Receptor-Specific Peptides for Treatment of Obesity / 669” (Palatin Technologies, Inc, priority 2008, published 2009).
Values joined by “and” are separate entries in the source; they are usually repeats but may differ in a detail not shown here. Equal values may be shown once. Read-outs that look alike come from different tables or passages of the source. *1 amine or outer side, *2 acyl side, *3 side chain or, on linkers, in order; H or OH if unused. Where a SMILES comes first, the peptide text is derived from it. Bridges are numbered along the chain shown (N, C = ends). [ ]: non-standard residue; d: D form. Ser(Bzl) = O-benzyl-L-serine, O=C([C@H](COCc1ccccc1)N[*:1])[*:2]; Orn = NCCC[C@H](N)C(=O)O

Legend:
[1] = Food intake and body weight change in rats; assay type: in vivo, rat; conditions: for food intake / rate of change in body weight: rat feeding studies, overall finding in words; for decrease in food consumption compared to control: rats
Description: Change in food intake and body weight was evaluated for selected peptides administered by intravenous (IV) or subcutaneous injection routes. Male Sprague-Dawley rats were obtained from Hilltop Lab Animals, Inc. (Scottsdale, Pa.) or other vendors. Animals were individually housed in conventional polystyrene hanging cages and maintained on a controlled 12 hour on/off light cycle. Water and pelleted food was provided ad libitum. The rats were dosed IV with vehicle or selected peptides (0.3 to 1.0 mg/kg), or dosed subcutaneously with vehicle or selected peptides (doses up to 30 mg/kg). The changes in body weight and food intake for the 24 hour period after dosing was determined. The changes in body weight and food intake for the 48 hour and 72 hour periods after dosing can also be measured to determine reversal of changes in body weight and food intake effects back to baseline levels.

[2] = Induction of penile erection in male rats; assay type: in vivo, rat; conditions: for increase in observed spontaneous erections: in words
Description: The ability of peptides of the present invention to induce penile erection (PE) in male rats were evaluated with selected peptides. Male Sprague-Dawley rats weighing 250-300 g were kept on a 12 hour on/off light cycle with food and water ad libitum. All behavioral studies were performed between 9 a.m. and 4 p.m. Groups of 6-8 rats were administered peptides at a variety of doses via an IV route. Immediately after treatment, rats were placed into individual polystyrene cages (27 cm long, 16 cm wide, and 25 cm high) for behavioral observation, typically by remote video monitoring. Rats are observed for one hour, and the number of yawns, grooming bouts and PEs are recorded in 10-minute bins.

hMC4-R [3] = target: T1, hMC4-R (Homo sapiens, UniProt P32245); experiment: Competitive binding assay using Eu-NDP-α-MSH, MC4-R; conditions: for selectivity for MC4-R (binding against MC1-R, MC3-R and MC4-R): in words
T1 construct: expressed in transfected cells; host or cells: HEK-293 (membrane homogenates)
Description: Competitive inhibition binding assays were performed using membrane homogenates prepared from HEK-293 cells that express recombinant hMC1-R, hMC3-R, hMC4-R, or hMC5-R. In the examples that follow, all MC1-R, MC3-R, MC4-R and MC5-R values are for human recombinant receptors. Assays were performed in 96 well GF/B Millipore multiscreen filtration plates (MAFB NOB10) pre-coated with 0.5% bovine serum albumin (Fraction V). Membrane homogenates were incubated with 0.1 nM [1^125]-NDP-α-MSH (Perkin Elmer) and increasing concentrations of test peptides of the present invention in buffer containing 25 mM HEPES buffer (pH 7.5) with 100 mM NaCl, 2 mM CaCl2, 2 mM MgCl2, 0.3 mM 1,10-phenanthroline, and 0.1% bovine serum albumin. After incubation for 90 minutes at 37° C., the assay mixture was filtered and the membranes washed with 1 mL of cold 1×PBS wash buffer per well. 35 μL of scintillation cocktail was added to each well and the plates counted on a Microbeta counter for 1 minute per well. Non-specific binding was measured by inhibition of binding of [I^125]-NDP-α-MSH in the presence of 1 μM NDP-α-MSH. Maximal specific binding (100%) was defined as the difference in radioactivity (cpm) bound to cell membranes in the absence and presence of 1 μM NDP-α-MSH. Radioactivity (cpm) obtained in the presence of test compounds was normalized with respect to 100% specific binding to determine the percent inhibition of [I^125]-NDP-α-MSH binding. Each assay was conducted in duplicate and actual mean values are described, with results less than 0% reported as 0%. Ki values for test peptides of the present invention were determined using Graph-Pad Prism® curve-fitting software.
(§1) Alternatively, a competitive inhibition binding assay was performed employing Eu-NDP-α-MSH (PerkinElmer Life Sciences catalog No. AD0225) with determination by time-resolved fluorometry (TRF) of the lanthanide chelate. In comparison studies with [I^125]-NDP-α-MSH, the same values, within experimental error ranges, were obtained for percent inhibition and Ki. Typically competition experiments to determine Ki values were conducted by incubating membrane homogenates prepared from HEK-293 cells that express recombinant hMC4-R with 9 different concentrations of test compounds of interest and 1 nM of Eu-NDP-α-MSH in a solution containing 25 mM HEPES buffer with 100 mM NaCl, 2 mM CaCl2, 2 mM MgCl2, 0.1% BSA, and 0.3 mM 1,10-phenanthroline. After incubation for 90 minutes at 37° C., the reaction was stopped by filtration over AcroWell 96-well filter plates (Pall Life Sciences). The filter plates were washed 4 times with 200 μL of ice-cold phosphate-buffered saline. DELFIA Enhancement solution (PerkinElmer Life Sciences) was added to each well. The plates were incubated on a shaker for 15 minutes and read at 340 nm excitation and 615 nm emission wavelengths. Each assay was conducted in duplicate and mean values were utilized. Ki values were determined by curve-fitting with Graph-Pad Prism® software using a one-site fixed-slope competition binding model.

hMC4-R [4] = target: T1, hMC4-R; experiment: Assay for agonist activity (cAMP accumulation in HEK-293 cells expressing hMC4-R); assay type: cell-based
Description: Accumulation of intracellular cAMP was examined as a measure of the ability of the peptides of the present invention to elicit a functional response in HEK-293 cells that express MC4-R. Confluent HEK-293 cells that express recombinant hMC4-R were detached from culture plates by incubation in enzyme-free cell dissociation buffer. Dispersed cells were suspended in Earle's Balanced Salt Solution containing 10 mM HEPES (pH 7.5), 1 mM MgCl2, 1 mM glutamine, 0.5% albumin and 0.3 mM 3-isobutyl-1-methyl-xanthine (IBMX), a phosphodiesterase inhibitor. The cells were plated in 96-well plates at a density of 0.5×10^5 cells per well and pre-incubated for 10 minutes. Cells were exposed for 15 minutes at 37° C. to peptides of the present invention dissolved in DMSO (final DMSO concentration of 1%) at a concentration range of 0.05-5000 nM in a total assay volume of 200 μL. NDP-α-MSH was used as the reference agonist. cAMP levels were determined by an HTRF® cAMP cell-based assay system from Cisbio Bioassays utilizing cryptate-labeled anti-cAMP and d2-labeled cAMP, with plates read on a Perkin-Elmer Victor plate reader at […]. Data analysis was performed by nonlinear regression analysis with Graph-Pad Prism® software. The maximum efficacies of the test peptides of the present invention were compared to that achieved by the reference melanocortin agonist NDP-α-MSH.

[5] = target: T2, human melanocortin-4 receptor (recombinant hMC4-R) (human, UniProt P32245 1-332); experiment: competitive binding vs Eu-NDP-α-MSH, TRF, hMC4-R HEK-293 membranes
T2 construct: whole, on cells; the cAMP assay used whole cells; also called MC4 receptor
Description: as §1, with “[I¹²⁵]-NDP-α-MSH,” for “[I^125]-NDP-α-MSH,”, “Typically competition experiments to determine Ki values were conducted by incubating membrane homogenates prepared from HEK-293 cells that express recombinant hMC4-R with 9 different concentrations of test compounds of interest and 1 nM of Eu-NDP-α-MSH in a solution containing 25 mM HEPES buffer with 100 mM NaCl, 2 mM CaCl2, 2 mM MgCl2, 0.1% BSA, and 0.3 mM 1,10-phenanthroline.” left out
Peptides of the following structures were synthesized by the general methods described above, and except where indicated MC4-R Ki values for each peptide were determined in competitive binding assays using Eu-NDP-α-MSH as described in 7.2 above.

[6] = target: T2, human melanocortin-4 receptor …; experiment: cell-based or functional assay
[7] = target: T3, human melanocortin-3 receptor (recombinant hMC3-R) (human, UniProt P41968 1-323); experiment: competitive binding vs labelled NDP-α-MSH, hMC3-R membranes
T3 construct: whole, on cells; Membrane homogenates of HEK-293 cells expressing the recombinant receptor

[8] = target: human melanocortin-4 receptor (recombinant hMC4-R) (human) (UniProt P32245); experiment: cell-based or functional assay
[9] = competitive studies using Eu-NDP-α-MSH / NDP-α-MSH, average of several studies, read-out: Ki value at MC4-R
[10] = competitive binding using Eu-NDP-α-MSH, human recombinant receptor, read-out: MC4-R Ki

T1 sequence (P32245 whole entry): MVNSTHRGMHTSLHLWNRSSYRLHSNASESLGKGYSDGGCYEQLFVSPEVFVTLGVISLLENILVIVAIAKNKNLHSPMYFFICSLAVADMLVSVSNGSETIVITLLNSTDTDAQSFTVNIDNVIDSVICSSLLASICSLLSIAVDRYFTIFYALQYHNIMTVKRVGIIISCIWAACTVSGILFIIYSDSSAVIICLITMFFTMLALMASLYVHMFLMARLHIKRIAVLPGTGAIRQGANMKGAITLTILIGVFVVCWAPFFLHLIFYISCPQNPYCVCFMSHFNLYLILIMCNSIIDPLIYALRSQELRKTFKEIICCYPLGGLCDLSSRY
T2 sequence (P32245 whole entry): as above
Chain of human melanocortin-4 receptor (recombinant hMC4-R) (human) (P32245 whole entry): as above
T3 sequence (P41968 whole entry): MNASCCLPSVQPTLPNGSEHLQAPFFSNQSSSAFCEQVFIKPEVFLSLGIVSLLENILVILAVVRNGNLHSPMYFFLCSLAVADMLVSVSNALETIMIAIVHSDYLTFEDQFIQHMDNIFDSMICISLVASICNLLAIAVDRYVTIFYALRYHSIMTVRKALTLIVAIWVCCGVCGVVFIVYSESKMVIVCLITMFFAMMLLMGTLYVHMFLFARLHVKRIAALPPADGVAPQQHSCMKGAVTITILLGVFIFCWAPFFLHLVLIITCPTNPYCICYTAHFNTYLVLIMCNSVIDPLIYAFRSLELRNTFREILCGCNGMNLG

CC(=O)N[C@@H](CCCNC(=N)N)C(=O)N[C@H]1CC(=O)NCCCC[C@@H](C(N)=O)NC(=O)[C@H](Cc2c[nH]c3ccccc23)NC(=O)[C@H](CCCNC(=N)N)NC(=O)[C@@H](Cc2ccccc2)NC(=O)[C@@H]2CCCN2C1=O [Compound 3, Ac-Arg-cyclo(Asp-Pro-D-Phe-Arg-Trp-Lys)-NH2]
food intake [1]: reduce food intake
rate of change in body weight [1]: decrease the rate of change in body weight
decrease in food consumption compared to control ([1]; 0.3 mg/kg, 0-2 hour period): statistically significant
decrease in food consumption compared to control ([1]; 0.3 mg/kg, 0-4 hour period): statistically significant
decrease in food consumption compared to control ([1]; 0.3 mg/kg, 0-20 hour period): statistically significant
decrease in food consumption compared to control ([1]; 1 mg/kg, 0-2 hour period): statistically significant
decrease in food consumption compared to control ([1]; 1 mg/kg, 0-4 hour period): statistically significant
decrease in food consumption compared to control ([1]; 1 mg/kg, 0-20 hour period): statistically significant
average spontaneous erections per rat in one hour ([2]; IV, 0.3 mg/kg): 1.143±0.553 spontaneous erections per rat in one hour
average spontaneous erections per rat in one hour ([2]; IV, 1 mg/kg): 1.286±0.421 spontaneous erections per rat in one hour
increase in observed spontaneous erections ([2]; IV): not found to result in a statistically significant increase
Ki (hMC4-R [3]; [9]): 11 nM
selectivity for MC4-R (binding against MC1-R, MC3-R and MC4-R) (hMC4-R [3]): highly selective for MC4-R

CCCC[C@H](NC(C)=O)C(=O)N[C@H]1CC(=O)NCCCC[C@@H](C(=O)O)NC(=O)[C@H](Cc2c[nH]c3ccccc23)NC(=O)[C@H](CCCN=C(N)N)NC(=O)[C@@H](Cc2ccccc2)NC(=O)[C@H](Cc2cnc[nH]2)NC1=O [bremelanotide, Ac-Nle-cyclo(Asp-His-D-Phe-Arg-Trp-Lys)-OH, reference compound]
average spontaneous erections per rat in one hour ([2]; IV, 1 mg/kg): 4.875±0.990 spontaneous erections per rat in one hour and 3.167±0.79 spontaneous erections per rat in one hour
average spontaneous erections per rat in one hour ([2]; positive control, dose not stated in this study): 3.714±0.680 spontaneous erections per rat in one hour

CC(=O)N[C@@H](CCCNC(=N)N)C(=O)N[C@H]1CCCNC(=O)CC[C@@H](C(N)=O)NC(=O)[C@H](Cc2c[nH]c3ccccc23)NC(=O)[C@H](CCCNC(=N)N)NC(=O)[C@@H](Cc2ccccc2)NC(=O)[C@@H]2CCCN2C1=O [Compound 5, Ac-Arg-cyclo(Orn-Pro-D-Phe-Arg-Trp-Glu)-NH2] (Ac-R[Orn]P[dF]RWE-NH2; lactam 2-7)
Ki (hMC4-R [3]; [10]): 13 nM

CC(=O)N[C@@H](CCCNC(=N)N)C(=O)N[C@H]1CC(=O)NCCCC[C@@H](C(=O)O)NC(=O)[C@H](Cc2c[nH]c3ccccc23)NC(=O)[C@H](CCCNC(=N)N)NC(=O)[C@@H](Cc2ccccc2)NC(=O)[C@H](COCc2ccccc2)NC1=O [Compound 1, Ac-Arg-cyclo(Asp-Ser(Bzl)-D-Phe-Arg-Trp-Lys)-OH]
food intake [1]: reduce food intake
rate of change in body weight [1]: decrease the rate of change in body weight
decrease in food consumption compared to control ([1]; 0.3 mg/kg, 0-4 hour period): statistically significant
decrease in food consumption compared to control ([1]; 1 mg/kg, 0-2 hour period): statistically significant
decrease in food consumption compared to control ([1]; 1 mg/kg, 0-4 hour period): statistically significant
decrease in food consumption compared to control ([1]; 1 mg/kg, 0-20 hour period): statistically significant
Emax (hMC4-R [4]; HEK293, NDP-α-MSH is 100%, read-out: intrinsic activity at MC4-R): 38%
intrinsic activity at MC4-R (hMC4-R [4]; NDP-α-MSH is 100%): 47%
EC50 (hMC4-R [4]; functional studies at MC4-R, average of several studies): 2 nM
functional classification at MC4-R (hMC4-R [4]; in words): partial agonist
average spontaneous erections per rat in one hour ([2]; IV, 1 mg/kg): 1.5±0.378 spontaneous erections per rat in one hour
increase in observed spontaneous erections ([2]; IV): not found to result in a statistically significant increase
Ki (hMC4-R [3]; [9]): 12 nM
selectivity for MC4-R (binding against MC1-R, MC3-R and MC4-R) (hMC4-R [3]): highly selective for MC4-R

CC(=O)N[C@@H](CCCNC(=N)N)C(=O)N[C@H]1CCC(=O)NCCC[C@@H](C(=O)O)NC(=O)[C@H](Cc2c[nH]c3ccccc23)NC(=O)[C@H](CCCNC(=N)N)NC(=O)[C@@H](Cc2ccccc2)NC(=O)[C@H](COCc2ccccc2)NC1=O [Compound 6, Ac-Arg-cyclo(Glu-Ser(Bzl)-D-Phe-Arg-Trp-Orn)-OH]
Ki (hMC4-R [3]; [10]): 13 nM

B1: Ac-Arg-cyclo(Asp-Pro-D-Phe-Arg-trp-Lys)-OH (peptide)
peptide: RDPXRWK
modifications: not fully specified; N-terminal acetyl (Ac); D-Phe at position 4; side-chain lactam cyclo(Asp2-Lys7); C-terminal -OH; position 6 printed 'trp' in the table and in claim 5 but 'Trp' in the 2nd table
notes: Synthetic cyclic heptapeptide; also called Compound 8; No. 8
Ki [5]: 116 nM

B2: cyclic peptide of Compound 3, Ac-Arg-cyclo(Asp-Pro-D-Phe-Arg-Trp-Lys)-NH2 (peptide)
peptide: RDPXRWK
modifications: N-terminal acetyl (Ac); D-Phe at position 4; side-chain lactam cyclo(Asp2-Lys7); C-terminal amide (-NH2)
notes: Synthetic cyclic heptapeptide; prepared as TFA salt; also called No. 3
EC50 (cAMP accumulation, HEK-293 cells expressing hMC4-R) [6]: 10 nM
Ki [7]: 125 nM

B3: cyclic peptide of Compound 7, Ac-Arg-cyclo(Orn-Ser(Bzl)-D-Phe-Arg-Trp-Glu)-OH (peptide)
peptide: Ac-R[Orn][Ser(Bzl)][dF]RWE-OH
modifications: lactam 2-7; also: TFA salt
EC50 (cAMP accumulation, HEK-293 cells expressing hMC4-R) [8]: 2 nM
intrinsic activity (cAMP accumulation, HEK-293 cells expressing hMC4-R) [8]: 47%
